≈ marks a conversion by molar mass, not a printed value.
Columns and labels:
AECO001 (ATCC25922) = test: MIC broth microdilution, AECO001; assay type: cell-based, E. coli; conditions: Escherichia coli, ATCC25922, read-out: MIC AECO001
Procedure, shortened: (§1)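 CLSI-guided microdilution: bacteria passaged overnight at 35° C. on Mueller-Hinton agar, tested in cation-adjusted broth at a final 3×10^5–7×10^5 CFU/mL across 2-fold drug dilutions, read after 18-24 h at 35° C.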

[1] = test system: AECO063 (ATCC25922 bearing an acrAB mutation); test: microbe, parasite or virus in culture; assay type: cell-based, E. coli; conditions: Escherichia coli, ATCC25922, read-out: MIC AECO063
Procedure, shortened: as §1

APAE001 (ATCC27853) = test: MIC broth microdilution, APAE001; assay type: cell-based, P. aeruginosa; conditions: Pseudomonas aeruginosa, ATCC27853, read-out: MIC APAE001, APAE001 is ATCC27853
Procedure, shortened: as §1

[2] = test system: APAE006 (strain of P. aeruginosa in which all efflux pumps are inactivated); test: microbe, parasite or virus in culture; assay type: cell-based; conditions: Pseudomonas aeruginosa, read-out: MIC APAE006, P. aeruginosa, all efflux pumps inactivated
Procedure, shortened: as §1

[3] = test system: APAE006 in the presence of 8 micrograms per milliliter of polymyxin B nonapeptide; assay type: cell-based, P. aeruginosa; conditions: in the presence of 8 micrograms per milliliter of polymyxin B nonapeptide
Procedure, shortened: as §1

[4] = test system: AABA1060 (clinical isolate of Acinetobacter baumannii); test: MIC broth microdilution, AABA1060; assay type: cell-based; conditions: Acinetobacter baumannii, read-out: MIC AABA1060
Procedure, shortened: as §1

[5] = test system: ASAU001 (laboratory strain of S. aureus, ATCC29213); test: MIC broth microdilution, ASAU001; assay type: cell-based; conditions: Staphylococcus aureus, ATCC29213, read-out: MIC ASAU001
Procedure, shortened: as §1

AECO001 HSA AGP = test: MIC broth microdilution, AECO001 HSA AGP; assay type: cell-based, E. coli; conditions: Escherichia coli
Experimental: Bacterial isolates were cultivated from −70° C. frozen stocks by overnight passages at 35° C. in ambient air on Mueller-Hinton agar (Beckton Dickinson, Franklin Lakes, N.J.). Clinical isolates tested were obtained from various geographically diverse hospitals in the US and abroad (Focus Diagnostics, Herndon, Va. and JMI, North Liberty, Iowa). Quality control strains were from the American Type Culture Collection (ATCC; Rockville, Md.). Additional primary panel strains were generated using standard molecular biology techniques.
Minimum Inhibitory Concentrations (MICs) were determined by the broth microdilution method in accordance with the Clinical and Laboratory Standards Institute (CLSI) guidelines. In brief, organism suspensions were adjusted to a 0.5 McFarland standard to yield a final inoculum between 3×10^5 and 7×10^5 colony-forming units (CFU)/mL. Drug dilutions and inocula were made in sterile, cation adjusted Mueller-Hinton Broth (Beckton Dickinson). An inoculum volume of 100 μL was added to wells containing 100 μL of broth with 2-fold serial dilutions of drug. All inoculated microdilution trays were incubated in ambient air at 35° C. for 18-24 hours. […] Performance of the assay was monitored by the use of laboratory quality-control strains and levofloxacin, a compound with a defined MIC spectrum, in accordance with CLSI guidelines.
*AECO001 is ATCC25922, AECO063 is ATCC25922 bearing an acrAB mutation, APAE001 is ATCC27853, APAE006 is a strain of P. aeruginosa in which all efflux pumps are inactivated, APAE006+PMBN indicates MICs with the indicated strain in the presence of 8 micrograms per milliliter of polymyxin B nonapeptide, AABA1060 is a clinical isolate of Acinetobacter baumannii, ASAU001 is a laboratory strain of S. aureus (ATCC29213).

C[C@@H](N)[C@H](NC(=O)c1ccc(C#CC#Cc2ccccn2)cc1)C(=O)NO [Example 88-4]
MIC (AECO001 (ATCC25922)): 2 to 16 µg/mL (≈ 5.52 to 44.2 µM) | MIC [1]: < 2 µg/mL | MIC (APAE001 (ATCC27853)): < 2 µg/mL | MIC [2]: < 2 µg/mL | MIC APAE006 + PMBN [3]: A (MIC's of 2.0 μg/mL or less = A) | MIC [4]: 16 to 64 µg/mL (≈ 44.2 to 177 µM) | MIC [5]: > 64 µg/mL | MIC (AECO001 HSA AGP): 16 to 64 µg/mL (≈ 44.2 to 177 µM)

C[C@@H](O)[C@H](NC(=O)c1ccc(C#CC#Cc2cncn2C)cc1)C(=O)NO [Example 88-9]
MIC (AECO001 (ATCC25922)): < 2 µg/mL | MIC [1]: < 2 µg/mL | MIC (APAE001 (ATCC27853)): 2 to 16 µg/mL (≈ 5.46 to 43.7 µM) | MIC [2]: < 2 µg/mL | MIC APAE006 + PMBN [3]: A (MIC's of 2.0 μg/mL or less = A) | MIC [4]: 16 to 64 µg/mL (≈ 43.7 to 175 µM) | MIC [5]: 16 to 64 µg/mL (≈ 43.7 to 175 µM) | MIC (AECO001 HSA AGP): 2 to 16 µg/mL (≈ 5.46 to 43.7 µM)

Cn1cncc1C#CC#Cc1ccc(C(=O)N[C@H](C(=O)NO)C(C)(C)O)cc1 [Example 88-10]
MIC (AECO001 (ATCC25922)): < 2 µg/mL | MIC [1]: < 2 µg/mL | MIC (APAE001 (ATCC27853)): 2 to 16 µg/mL (≈ 5.26 to 42.1 µM) | MIC [2]: < 2 µg/mL | MIC APAE006 + PMBN [3]: A (MIC's of 2.0 μg/mL or less = A) | MIC [4]: 2 to 16 µg/mL (≈ 5.26 to 42.1 µM) | MIC [5]: 16 to 64 µg/mL (≈ 42.1 to 168 µM) | MIC (AECO001 HSA AGP): 2 to 16 µg/mL (≈ 5.26 to 42.1 µM)

C[C@@H](N)[C@H](NC(=O)c1ccc(C#CC#CC2CC2)cc1)C(=O)NO [Example 91-2]
MIC (AECO001 (ATCC25922)): < 2 µg/mL | MIC [1]: < 2 µg/mL | MIC (APAE001 (ATCC27853)): < 2 µg/mL | MIC [2]: < 2 µg/mL | MIC APAE006 + PMBN [3]: A (MIC's of 2.0 μg/mL or less = A) | MIC [4]: < 2 µg/mL | MIC [5]: 2 to 16 µg/mL (≈ 6.15 to 49.2 µM) | MIC (AECO001 HSA AGP): 2 to 16 µg/mL (≈ 6.15 to 49.2 µM)

C[C@@H](N)[C@H](NC(=O)c1ccc(C#CC#CC2CCCC2)cc1)C(=O)NO [Example 91-3]
MIC (AECO001 (ATCC25922)): < 2 µg/mL | MIC [1]: < 2 µg/mL | MIC (APAE001 (ATCC27853)): < 2 µg/mL | MIC [2]: < 2 µg/mL | MIC APAE006 + PMBN [3]: A (MIC's of 2.0 μg/mL or less = A) | MIC [4]: 2 to 16 µg/mL (≈ 5.66 to 45.3 µM) | MIC [5]: 2 to 16 µg/mL (≈ 5.66 to 45.3 µM) | MIC (AECO001 HSA AGP): 2 to 16 µg/mL (≈ 5.66 to 45.3 µM)

C[C@@H](N)[C@H](NC(=O)c1ccc(C#CC#CC2CCCCC2)cc1)C(=O)NO [Example 91-4]
MIC (AECO001 (ATCC25922)): < 2 µg/mL | MIC [1]: < 2 µg/mL | MIC (APAE001 (ATCC27853)): 2 to 16 µg/mL (≈ 5.44 to 43.5 µM) | MIC [2]: < 2 µg/mL | MIC APAE006 + PMBN [3]: A (MIC's of 2.0 μg/mL or less = A) | MIC [4]: 2 to 16 µg/mL (≈ 5.44 to 43.5 µM) | MIC [5]: 2 to 16 µg/mL (≈ 5.44 to 43.5 µM) | MIC (AECO001 HSA AGP): 2 to 16 µg/mL (≈ 5.44 to 43.5 µM)

C[C@@H](O)[C@H](NC(=O)c1ccc(C#C/C=C/c2ccc(CN3CCOCC3)cc2)cc1)C(=O)NO [Example 96-1, N-((1S,2R)-2-Hydroxy-1-hydroxycarbamoyl-propyl)-4-[(E)-4-(4-morpholin-4-ylmethyl-phenyl)-but-3-en-1-ynyl]-benzamide]
MIC (AECO001 (ATCC25922)): < 2 µg/mL | MIC [1]: < 2 µg/mL | MIC (APAE001 (ATCC27853)): 2 to 16 µg/mL (≈ 4.31 to 34.5 µM) | MIC [2]: < 2 µg/mL | MIC APAE006 + PMBN [3]: A (MIC's of 2.0 μg/mL or less = A) | MIC [4]: 2 to 16 µg/mL (≈ 4.31 to 34.5 µM) | MIC [5]: > 64 µg/mL | MIC (AECO001 HSA AGP): < 2 µg/mL

C[C@H](O)[C@H](NC(=O)c1ccc(C#C/C=C/c2ccc(CN3CCOCC3)cc2)cc1)C(=O)NO [Example 96-2]
MIC (AECO001 (ATCC25922)): < 2 µg/mL | MIC [1]: < 2 µg/mL | MIC (APAE001 (ATCC27853)): 2 to 16 µg/mL (≈ 4.31 to 34.5 µM) | MIC [2]: < 2 µg/mL | MIC APAE006 + PMBN [3]: A (MIC's of 2.0 μg/mL or less = A) | MIC [4]: 2 to 16 µg/mL (≈ 4.31 to 34.5 µM) | MIC [5]: 16 to 64 µg/mL (≈ 34.5 to 138 µM) | MIC (AECO001 HSA AGP): 2 to 16 µg/mL (≈ 4.31 to 34.5 µM)

CC(C)[C@H](NC(=O)c1ccc(C#C/C=C/c2ccc(CN3CCOCC3)cc2)cc1)C(=O)NO [Example 96-3]
MIC (AECO001 (ATCC25922)): < 2 µg/mL | MIC [1]: < 2 µg/mL | MIC (APAE001 (ATCC27853)): 2 to 16 µg/mL (≈ 4.33 to 34.7 µM) | MIC [2]: < 2 µg/mL | MIC APAE006 + PMBN [3]: A (MIC's of 2.0 μg/mL or less = A) | MIC [4]: 2 to 16 µg/mL (≈ 4.33 to 34.7 µM) | MIC [5]: 16 to 64 µg/mL (≈ 34.7 to 139 µM) | MIC (AECO001 HSA AGP): 2 to 16 µg/mL (≈ 4.33 to 34.7 µM)

C[C@@H](N)[C@H](NC(=O)c1ccc(C#C/C=C/c2ccc(CN3CCOCC3)cc2)cc1)C(=O)NO [Example 96-4]
MIC (AECO001 (ATCC25922)): < 2 µg/mL | MIC [1]: < 2 µg/mL | MIC (APAE001 (ATCC27853)): 2 to 16 µg/mL (≈ 4.32 to 34.6 µM) | MIC [2]: < 2 µg/mL | MIC APAE006 + PMBN [3]: A (MIC's of 2.0 μg/mL or less = A) | MIC [4]: 2 to 16 µg/mL (≈ 4.32 to 34.6 µM) | MIC [5]: > 64 µg/mL | MIC (AECO001 HSA AGP): 2 to 16 µg/mL (≈ 4.32 to 34.6 µM)
